The source of these data is patent US20050059977A1, “Monitoring circadian activity” (priority 2003, published 2005).

One assay concerns NAT. As to the kind of experiment: Pineal in situ hybridization for NAT RNA after drug infusion by microdialysis. Type of assay: in vivo, rat. The method, then: (§1) Pineal microdialysis was carried out as follows. Immediately before sampling, the rat was anesthetized with halothane briefly, the stylet (or dummy probe) was replaced with a microdialysis proble (CMA12, 20 KD cut off, membrane length 4 mm)(CMA Microdialysis, N. Chelmsford, Mass.) and fixed with plastic glue. The dialysis probe was continuously infused via the microbore PEEK tubing (0.65 mm OD, 0.12 mm ID) at a flow rate of 2 ul/min with artificial CSF (Harvard, Holliston, Mass.). Samples were collected at 10 minutes intervals via the PEEK tube into a 20 ul loop of Pollen 8 automatic injector (BAS, West Lafayette, Ind.), which was on-line with the HPLC system. The sample loop was set to be retained in the load position during the 10 minute cycles and was automatically switched to the injection positions briefly, after which the cycle was repeated. The rats were linked to the apparatus for dialysis through a quartz dual channel swivel (Harvard/Instech, Boston, Mass.) to prevent the tubing from entanglement. All pharmacological agents with molecular weights less than 6,0000 Daltons were delivered to the pineal through the microdialysis tubing. All drugs were infused after dissolving in artificial CSF solution at final concentrations indicated and for the duration described in the figure legends. […]

A further assay has as its system pineal gland. As to the kind of experiment: In vivo pineal microdialysis with drug infusion through the dialysis membrane; on-line HPLC of melatonin and serotonin (5-HT) secretion. The arrangement: species or system rat. On the procedure:
Adult Sprague Dawley male rats (220-225 g) were house at 20-25° C. with lights on at 11 am (LD 14:10). Food and were available ad libitum throughout the experiment. Illumination was supplied by white fluorescent lamps (600 lux at cage level). Rats were placed in the LD cycles for at least 2 weeks before the start of surgery.
The animals were deeply anesthetized with a combination of Ketamine (10 mg/ml, 0.5 ml/100 g weight, i.p.) and Xylazine (2 mg/ml, 0.5 ml/100 g weight, i.p.). The animals' heads were shaved and positioned in a stereotaxic instrument. A longitudinal incision (approximately 2.5 cm) is made along the midline in the skin from anterior (level of the eyes) to posterior (base of the skull). The sagittal and lambdoid sutures were then exposed by scraping away the periosteum to the temporal muscles. […] The dura was exposed after grinding away the top bone, which was removed using iris forceps after making a cross cut with a scalpel blade (FIG. 1B). […] Bleeding was controlled with cotton wool pledget, or flushed with water and suctioned. Three stainless steel screws were placed nearby in the parietal and frontal bones to serve as anchors. After the animal's head was repositioned 30 degrees downward, the dura matter below the confluence of sinuses was then lifted 5 mm with a hook fixed to the stereotaxic frame (FIG. 1C). The dorsal cerebellum was then pressed downward with a glass blunt tube to expose the pineal gland. The tentorium cerebelli which covers the posterior surface of the pineal and connects to the confluence of the sinuses, was then carefully reflected to visualize the pineal with a micro sharp hook, while the bleeding around the pineal was flushed and suctioned. The pineal vein is visible in the midline of the pineal posterior surface (FIG. 1D) which divides the pineal gland into two parts and drains it to the confluence of the sinuses. The tip of the guide cannula (CMA Microdialysis, N. Chelmsford, Mass.) was then positioned adjacent to either side of the exposed pineal before the skull was closed with dental cement. The rats were allowed to recover for 24 hours before experimentation.
as §1, with “entanglement.” for “entanglement. All pharmacological agents with molecular weights less than 6,0000 Daltons were delivered to the pineal through the microdialysis tubing. All drugs were infused after dissolving in artificial CSF solution at final concentrations indicated and for the duration described in the figure legends.”
The analytical condition for the simultaneous detection of 5-HT/NAS/melatonin was based on Drijffiout et al. (J. Neurochem. 61: 936-942 (1993)) with minor modifications. A Shimadzu pump (Shimadzu, Columbia, USA) was used in conjunction with a Shimadzu fluorescence detector (FD, excitation: 280 nm, emission: 345 nm). […]

[1] abbreviates: ISO 1 uM infused into pineal for 2.5 hours during the day (14:30 to 17:00), days 7-10 of microdialysis, single rat.
Where [2] appears, read: dibutyryl cAMP 10 mM infused through the microdialysis tube during the day.

SMILES strings stand for the structures.

With `CC(C)NCC(O)c1ccc(O)c(O)c1` (stereo not shown) [ISO, Isoprenaline], the “NAT RNA expression in pineal sections (in situ hybridization)” value in the assay on NAT (ISO 1 uM infused through dialysis membrane during the day, 12th day of microdialysis, n=5 rats) is “restricted to the region surrounding the probe membrane”. Further, in the assay on pineal gland (setting [1]), the “effect on serotonin (5-HT) output as melatonin output increases” value is “decreases in a perfectly inverse manner”, the “time after ISO treatment at which melatonin reaches a maximum” value was found to be 2 h, the “time after ISO withdrawal within which melatonin decreases” value is ≤ 1 h and the “time after infusion at which melatonin levels begin to increase” value was found to be 1 h.

In the case of `CCCC(=O)Nc1ncnc2c1ncn2[C@@H]1O[C@@H]2COP(=O)(O)O[C@H]2[C@H]1OC(=O)CCC` [dibutyryl-cAMP], the “NAT gene induction in pineal sections (in situ hybridization)” value with NAT (setting [2]) is “NAT gene induction is detected”. In addition, the melatonin production result in the assay on pineal gland (setting [2]) is given as “activated”.
